From patent US20050256034A1, “Dioxolane analogs for improved inter-cellular delivery” (priority 2000, published 2005)
Where a name gives a salt, the structure may show the parent alone.

Assay: 3H-Thymidine Incorporation Assay (24 hr drug, wash, another 48 hr; 72 hr assay)
Assay type: cell-based
Conditions: for IC50: CCRF-CEM, read-out: IC50 in μM (3H-TdR incorporation at 72 hr) CEM/dCK- 24 h, CEM/dCK- (CCRF-CEM deoxycytidine kinase-deficient), 24 h exposure to drug, wash, another 48 hr; for Factor (Resistance Factor = Ratio of dCK- on Wild-type CCRF-CEM): ratio of IC50 CEM/dCK- to IC50 CCRF-CEM, 24 h exposure

Row | Structure (SMILES) | IC50 [µM] | Factor (Resistance Factor = Ratio of dCK- on Wild-type CCRF-CEM) | Factor (Resistance Factor = Ratio of dCK- on Wild-type CCRF-CEM) (bis trifluoroacetate salt)
1 | N=C(OC[C@H]1OC[C@@H](n2ccc(N)nc2=O)O1)C(Cl)(Cl)Cl [Compound 79, 2,2,2-TRICHLORO-ACETI- MIDIC ACID 4-(4-A- MINO-2-OXO-2H-PYRI- MIDIN-1-YL)-[1,3]DI- OXOLAN-2-YL- METHYL ESTER] | 63 | 4,500 | 
2 | COC(=O)CCCC(=O)Nc1ccn([C@@H]2CO[C@H](CO)O2)c(=O)n1 [Compound 81, 4-[1-(2-HYDROXYMETHYL-[1,3]DI- OXOLAN-4-YL)-2-OX- O-1,2-DIHYDRO-PYRI- MIDIN-4-YL- CARBAMOYL]-BUTYRIC ACID METHYL ESTER] |  | 83 | 
3 | Nc1ccn([C@@H]2CO[C@H](COC(=O)CCCCCNCc3ccccc3)O2)c(=O)n1 [Compound 83, 6-Benzylamino-hexanoic acid 4-(4-amino-2-oxo-2H-pyri-midin-1-yl)-[1,3]di-oxolan-2-yl-methyl ester bis trifluoroacetate salt] |  |  | 4,545
4 | Nc1ccn([C@@H]2CO[C@H](COC(=O)CCCCCNCc3ccccc3)O2)c(=O)n1 [Compound 84, 6-Benzylamino-hexanoic acid 4-(4-amino-2-oxo-2H-pyri-midin-1-yl)-[1,3]di-oxolan-2-ylmethyl ester] | 60 | 5,000 | 
5 | Nc1ccn([C@@H]2CO[C@H](CO[C@@H]3O[C@H](CO)[C@@H](O)[C@H]3O)O2)c(=O)n1.O=C(O)C(F)(F)F [Compound 85, 4-AMINO-1-[2-(3,4-DI- HYDROXY-5-HYDROXY- METHYL-TETRA- HYDROFURAN-2-YLOXY- METHYL)-[1,3]DI- OXOLAN-4-YL]-1HPYIMI- DIN-2-ONE, TRIFLUOROACETIC ACID SALT] |  | 38 | 
6 | O=C(O)C(F)(F)F.O=c1nc(NC/C=C/c2ccccc2)ccn1[C@@H]1CO[C@H](CO)O1 [Compound 89, 1-(2-HYDROXYMETHYL-[1,3]DI- OXOLAN-4-YL)-4-(3-CIN- NAMYL)-1H-PYRI- MIDIN-2-ONE TRIFLUORO-ACETATE SALT] |  | 40 | 
7 | Nc1ccn([C@@H]2CO[C@H](COC/C=C/c3ccccc3)O2)c(=O)n1.O=C(O)C(F)(F)F [Compound 90, 4-AMINO-1-[2-(3-CIN- NAMYLOXYMETHYL)-[1,3]DI- OXOLAN-4-YL]-1H-PYRI- MIDIN-2-ONE TRIFLUOROACETATE SALT] |  | 1.5 | 
8 | CC(OC[C@H]1OC[C@@H](n2ccc(N)nc2=O)O1)OC1CCCCC1 (stereo partly shown) [Compound 92, 4-AMINO-1-[2-(1-CYCLO- HEXYLOXY-ETH- OXYMETHYL)-[1,3]DI- OXOLAN-4-YL]-1H-PYRI- MIDIN-2-ONE] |  | 77 | 
9 | CCCCC(CC)C(=O)Nc1ccn([C@@H]2CO[C@H](CO)O2)c(=O)n1 (stereo partly shown) [Compound 99, 2-ETHYL-HEXANOIC ACID [1-(2-HYDROXYMETHYL-[1,3]DI- OXOLAN-4-YL)-2-OX- O-1,2-DIHYDRO-PYRI- MIDIN-4-YL]-AMIDE] |  | >20 | 
10 | O=C(Nc1ccn([C@@H]2CO[C@H](COC(=O)C34CC5CC(CC(C5)C3)C4)O2)c(=O)n1)OCc1ccccc1 [Compound 101, ADAMANTANE-1-CARBOXYLIC ACID 4-(4-BENZYL- OXYCARBONYLAMINO-2-OX- O-2H-PYRIMIDIN-1-YL)-[1,3]DI- OXOLAN-2-YLMETHYL ESTER] |  | 44 | 
11 | O=C(Nc1ccn([C@@H]2CO[C@H](COC(=O)C34CC5CC(CC(C5)C3)C4)O2)c(=O)n1)C12CC3CC(CC(C3)C1)C2 [Compound 102, ADAMANTANE-1-CARBOXYLIC ACID 4-{4-[(ADAMANTANE-1-CAR- BONYL)-AMINO]-2-OX- O-2H-PYRIMIDIN-1-YL}-[1,3]DI- OXOLAN-2-YLMETHYL ESTER] |  | 27 | 
12 | O=C(Nc1ccn([C@@H]2CO[C@H](COC(=O)Oc3ccc(Cl)cc3)O2)c(=O)n1)Oc1ccc(Cl)cc1 [Compound 103, CARBONIC ACID 4-[4-(4-CHLORO-PHENOXY- CARBONYLAMINO)-2-OX- O-2H-PYRIMIDIN-1-YL]-[1,3]DI- OXOLAN-2-YLMETHYL ESTER 4-CHLORO-PHENYL ESTER] |  | 4,545 | 
13 | O=C(Nc1ccn([C@@H]2CO[C@H](CO)O2)c(=O)n1)Oc1ccc(Cl)cc1.O=C(O)C(F)(F)F [Compound 104, [1-(2-HYDROXYMETHYL-[1,3]DI- OXOLAN-4-YL)-2-OX- O-1,2-DIHYDRO-PYRI- MIDIN-4-YL]-CARBAMIC ACID 4-CHLORO-PHENYL ESTER TRIFLUOROACETATE SALT] |  | >476 | 
14 | Nc1ccn([C@@H]2CO[C@H](COC(=O)Oc3ccc(Cl)cc3)O2)c(=O)n1.O=C(O)C(F)(F)F [Compound 105, CARBONIC ACID 4-(4-A- MINO-2-OXO-2H-PYRI- MIDIN-1-YL)-[1,3]DI- OXOLAN-2-YLMETHYL ESTER 4-CHLORO-PHENYL ESTER TRIFLUOROACETATE SALT] |  | 2 393 | 
15 | O=C(NCc1ccccc1)Nc1ccn([C@@H]2CO[C@H](CO)O2)c(=O)n1 [Compound 108, 1-BENZYL-3-[1-(2-HYDROXY- METHYL-[1,3]DI- OXOLAN-4-YL)-2-OX- O-1,2-DIHYDRO-PYRI- MIDIN-4-YL]-UREA] |  | >29 | 
16 | O=C(NCc1ccccc1)Nc1ccn([C@@H]2CO[C@H](COC(=O)NCc3ccccc3)O2)c(=O)n1 [Compound 109, BENZYL-CARBAMIC ACID 4-[4-(3-BEN- ZYL-UREIDO)-2-OX- O-2#H!-PYRIMIDIN-1-YL]-[1,3]DI- OXOLAN-2-YLMETHYL ESTER] |  | >100 | 
17 | Nc1ccn([C@@H]2CO[C@H](COC(=O)C34CC5CC(CC(C5)C3)C4)O2)c(=O)n1 [Compound 110, ADAMANTANE-1-CARBOXYLIC ACID 4-(4-AMINO-2-OXO-2H-PYRI- MIDIN-1-YL)-[1,3]DI- OXOLAN-2-YLMETHYL ESTER] |  | 3 307 | 
18 | CC(C)(C)OC(=O)N(CCCCC(=O)OC[C@H]1OC[C@@H](n2ccc(N)nc2=O)O1)Cc1ccccc1 [Compound 111, 5-(BENZYL-TERT-BUTOXY- CARBONYL-AMINO)-PENTANOIC ACID 4-(4-A- MINO-2-OXO-2H-PYRI- MIDIN-1-YL)-[1,3]DI- OXOLAN-2-YLMETHYL ESTER] |  | 13000 | 
19 | COc1cc2c(cc1OC)C(=O)/C(=C/c1cc(C)c(OC(=O)OC[C@H]3OC[C@@H](n4ccc(N)nc4=O)O3)c(C)c1)C2 [Compound 112, CARBONIC ACID 4(S)-(4′-A- MINO-2′-OXO-2H-PYRI- MIDIN-1′-YL)-[1,3]DI- OXOLAN-2(S)-YL- METHYL ESTER 4-(5″,6″-DI- METHOXY-1″-OXO-IN- DAN-2″-YLIDENE- METHYL)-2,6-DI- METHYL-PHENYL ESTER] | 0.057 | 10 | 
20 | COC1(OC[C@H]2OC[C@@H](n3ccc(N)nc3=O)O2)CCCCC1 [Compound 113, 4-AMINO-1-([2-(1-METH- OXY-CYCLO- HEXYLOXYMETHYL)-[1,3]DI- OXOLAN-4-YL]-1H-PYRI- MIDIN-2-ONE] |  | >1 667 | 
21 | CC(C)(C)OC(=O)N(CCCCC(=O)Nc1ccn([C@@H]2CO[C@H](COC(=O)CCCCN(Cc3ccccc3)C(=O)OC(C)(C)C)O2)c(=O)n1)Cc1ccccc1 [Compound 114, 5-(BENZYL-TERT-BUTOXY- CARBONYL-AMINO)-PENTANOIC ACID 4-{4-[5-(BENZYL-TERT-BUTOXY- CARBONYL-AMINO)-PENTANOYL- AMINO]-2-OXO-2H!PYRI- MIDIN-1-YL)-[1,3]DI- OXOLAN-2-YLMETHYL ESTER] |  | 500 | 
22 | CC(C)(C)OC(=O)N(CCCCC(=O)Nc1ccn([C@@H]2CO[C@H](CO)O2)c(=O)n1)Cc1ccccc1 [Compound 115, BENZYL-{4-[1-(2-HYDROXY- METHYL-[1,3]DI- OXOLAN-4-YL)-2-OX- O-1,2-DIHYDRO-PYRI- MIDIN-4-YLCARBA- MOYL]-BUTYL}-CARBAMIC ACID TERT!-BUTYL ESTER] |  | >500 | 
23 | COc1ccc(OC(=O)OC[C@H]2OC[C@@H](n3ccc(N)nc3=O)O2)cc1 [Compound 118, CARBONIC ACID 4-(4-A- MINO-2-OXO-2H-PYRI- MIDIN-1-YL)-[1,3]DI- OXOLAN-2-YLMETHYL ESTER 4-METHOXY-PHENYL ESTER] |  | >3 571 | 
24 | CCCCCCNC(=O)Nc1ccn([C@@H]2CO[C@H](COC(=O)NCCCCCC)O2)c(=O)n1 [Compound 119, HEXYL-CARBAMIC ACID 4-[4-(3-HEX- YL-UREIDO)-2-OX- O-2#H!-PYRIMIDIN-1-YL]-[1,3]DI- OXOLAN-2-YLMETHYL ESTER] |  | ˜2 | 
25 | CCCCCCNC(=O)Nc1ccn([C@@H]2CO[C@H](CO)O2)c(=O)n1 [Compound 120, 1-HEXYL-3-[1-(2-HY- DROXYMETHYL-[1,3]DI- OXOLAN-4-YL)-2-OX- O-1,2-DIHYDRO-PYRI- MIDIN-4-YL]-UREA] |  | 1 | 
26 | CCCCCCNC(=O)OC[C@H]1OC[C@@H](n2ccc(N)nc2=O)O1 [Compound 121, HEXYL-CARBAMIC ACID 4-(4-A- MINO-2-OXO-2H-PYRI- MIDIN-1-YL)-[1,3]DI- OXOLAN-2-YLMETHYL ESTER] |  | >6 | 
27 | CCCCCCOC(=O)OC[C@H]1OC[C@@H](n2ccc(NC(=O)OCc3ccccc3)nc2=O)O1 [Compound 122, CARBONIC ACID 4-(4-BENZYLOXY- CARBONYLAMINO-2-OX- O-2H-PYRIMIDIN-1-YL)-[1,3]DI- OXOLAN-2-YLMETHYL ESTER HEXYL ESTER] |  | 86 | 
28 | COc1ccc(C(OC[C@H]2OC[C@@H](n3ccc(N)nc3=O)O2)(c2ccccc2)c2ccc(OC)cc2)cc1 [Compound 123, 4-AMINO-1-{2-[BIS-(4-METH- OXY-PHENYL)-PHENYL-METH- OXYMETHYL]-[1,3]DI- OXOLAN-4-YL)-1H-PYRI- MIDIN-2-ONE] |  | 17 | 
